In article PMC9025555, “Chiral Recognition R- and RS- of New Antifungal: Complexation/Solubilization/Dissolution Thermodynamics and Permeability Assay” (Pharmaceutics, 2022):

Assay: Thermodynamics of complexation, solubilization and inherent dissolution (mole fraction scale)
Assay type: physicochemical
Settings: for Gibbs free energy of transfer from pure buffer pH 2.0 to CD solution: Eq. (10)
Method: The Gibbs energy change of the inherent (in pure aqueous buffer without CD) dissolution ( ΔGinh/sol0,X ) in mole fraction scale was derived from the compound mole fraction solubility ( X20 ) in the following way:(8) ΔGinh/sol0,X=−RTlnX20
The standard solution enthalpies ΔHinh/sol0,X and entropies ΔSinh/sol0,X were calculated using a linear dependence between lnX20 and 1/T and van’t Hoff equation:(9) lnX20=−ΔHinh/sol0,X/RT+ΔSinh/sol0,X/R
The free energy of transferring a compound from the aqueous buffer solution to the CD solution of a certain CD concentration ( CCD ) (corresponds to solubilization process) was calculated by Equation (10):(10) ΔGslbz0,X(CCD)=−RTlnX2/X20, where X20 is the inherent solubility of the drug in mole fraction in the absence of CD at temperature T, and X2 is the total solubility in the presence of CD at the same temperature, R is the universal gas constant. The solubilization enthalpy ( ΔHslbz0,X(CCD) ) and entropy ( TΔSslbz0,X(CCD) ) were derived as follows:(11) ΔHslbz0,X(CCD)=ΔHsol0,X(CCD)−ΔHsol0,X (12) TΔSslbz0,X(CCD)=TΔSsol0,X(CCD)−TΔSsol0,X where ΔHsol0,X and ΔSsol0,X are the enthalpy and entropy of solubility process of the investigated compounds in the absence of CD, whereas ΔHsol0,X(CCD) and ΔSsol0,X(CCD) are the enthalpy and entropy of solubility process in the presence of CD with concentration CCD .
In order to determine the thermodynamic parameters of the complex formation for the compounds with CD, the stability constants ( KCX , mole fraction scale) at different temperatures were obtained using the phase diagrams and mole fractions ( X20 ) (analogously to Equation (3) by the following equation:(13) KCX=slope/X20⋅(1−slope),
Respectively, the Gibbs energy of the complexation in mole fraction scale ( ΔGC0,X ) was derived from the stability constants ( KCX ) in the following way:(14) ΔGC0,X=−RTlnKCX
The thermodynamic parameters of the complexation, i.e., the standard enthalpy change ( ΔHC0,X ) and the standard entropy change ( ΔSC0,X ) were calculated with the help of the integral form of the van’t Hoff’s equation:(15) lnKCX=−ΔHC0,X/RT+ΔSC0,X/R where a plot of lnKCX versus 1/T produces Slope = −ΔHC0,X/R and intercept equal to ΔSC0,X/R .
In order to understand the contribution of the hydrophobic effect (desolvation) to the complexation process on a relative scale, the approach disclosing the correlation of the free energy of complex formation with the free energy of the substance solubility in the same buffer solution proposed by Al Omari et al. was applied. To this end, the Gibbs energy of complex formation ( ΔGCT,X ) and inherent dissolution ( ΔGinh/solT,X ) in mole fraction scale were used. A linear correlation between ΔGCT,X and ΔGsolT,X results in Equation (16):(16) ΔGCT,X=a⋅ΔGinh/solT,X+b where the slope (a) is the magnitude of the hydrophobic effect, and the intercept (b) is the structural factor. […]

[1] = buffer pH 2.0, 298.15 K, mole fraction scale
[2] = buffer pH 2.0 without CD, 298.15 K, mole fraction scale

O=C1S/C(=C\c2ccc(Cl)cc2)C(=O)N1CC(O)CN1CCN(CC(O)(Cn2cncn2)c2ccc(F)cc2F)CC1 (stereo not shown) [RS-186, (Z)-5-(4-chlorobenzylidene)-3-(3-(4-(2-(2,4-difluorophenyl)-2-hydroxy-3-(1H-1,2,4-triazol-1-yl)propyl)piperazin-1-yl)-2-hydroxypropyl)thiazolidine-2,4-dione]
Gibbs free energy of transfer from pure buffer pH 2.0 to CD solution (CCD 0.01, 298.15 K): -4.73 | Gibbs free energy of transfer from pure buffer pH 2.0 to CD solution (CCD 0.01, 303.15 K): -4.83 | Gibbs free energy of transfer from pure buffer pH 2.0 to CD solution (CCD 0.01, 310.15 K): -5.12 | Gibbs free energy of transfer from pure buffer pH 2.0 to CD solution (CCD 0.01, 313.15 K): -5.43 | Gibbs free energy of transfer from pure buffer pH 2.0 to CD solution (CCD 0.03, 298.15 K): -6.90 | Gibbs free energy of transfer from pure buffer pH 2.0 to CD solution (CCD 0.03, 303.15 K): -7.10 | Gibbs free energy of transfer from pure buffer pH 2.0 to CD solution (CCD 0.03, 310.15 K): -7.36 | Gibbs free energy of transfer from pure buffer pH 2.0 to CD solution (CCD 0.03, 313.15 K): -7.66 | Gibbs free energy of transfer from pure buffer pH 2.0 to CD solution (CCD 0.04, 298.15 K): -7.64 | Gibbs free energy of transfer from pure buffer pH 2.0 to CD solution (CCD 0.04, 303.15 K): -7.84 | Gibbs free energy of transfer from pure buffer pH 2.0 to CD solution (CCD 0.04, 310.15 K): -8.15 | Gibbs free energy of transfer from pure buffer pH 2.0 to CD solution (CCD 0.04, 313.15 K): -8.52 | Gibbs free energy of transfer from pure buffer pH 2.0 to CD solution (CCD 0.05, 298.15 K): -8.22 | Gibbs free energy of transfer from pure buffer pH 2.0 to CD solution (CCD 0.05, 303.15 K): -8.43 | Gibbs free energy of transfer from pure buffer pH 2.0 to CD solution (CCD 0.05, 310.15 K): -8.75 | Gibbs free energy of transfer from pure buffer pH 2.0 to CD solution (CCD 0.05, 313.15 K): -9.06 | slope (a) of ΔGC versus ΔGsol correlation, magnitude of the hydrophobic effect (Equation (16), pH 2.0, mole fraction scale): −0.611 | solubilization: change of the standard Gibbs energy (ΔGslbz0,X) (buffer pH 2.0, 298.15 K, calculated at maximal 0.05 M CD concentration): -1.96 kcal/mol | change of the standard Gibbs energy of inclusion complex formation (ΔGC0,X) [1]: -3.7 kcal/mol | enthalpy of inclusion complex formation (ΔHC0,X) [1]: -2.22 ± 0.311 kcal/mol | entropy of inclusion complex formation (TΔSC0,X) [1]: 1.48 ± 0.22 kcal/mol | solubilization entropy (TΔSslbz0,X) [1]: 3.59 ± 0.789 kcal/mol | inherent solubility Gibbs energy (ΔGinh/sol0,X) [2]: 7.17 kcal/mol | inherent solubility enthalpy (ΔHinh/sol0,X) [2]: 4.54 ± 0.526 kcal/mol | inherent solubility entropy (TΔSinh/sol0,X) [2]: -2.63 ± 0.359 kcal/mol | ratio |ΔHC0,X| > |TΔSC0,X| (complexation, pH 2.0, 298.15 K): about 1.5 fold | Complexation constant (KCX) (mole fraction scale, buffer pH 2.0, 298.15 K): 525.2 ± 52.9 | contribution of the hydrophobic interactions to the driving force for complex stability (pH 2.0): ~61%
